The values below come from US12312325B2, “Methods and compounds useful in the synthesis of an AAK1 inhibitor” (Lexicon Pharmaceuticals, Inc., priority 2022, dated 2025).

Counter-ions that a name gives are not always drawn.

A short description of data set [1]: water solubility. The data set is classed as physicochemical. The note with it: at 25° C. The protocol: (§1) Instead, the melting of Form I is observed to recrystallize to another, metastable form having a melting point of about 172.5° C.
Data set [2] can be described thus: storage stability of the crystalline form. It is filed as physicochemical. Particulars: stored at 40° C. and 75% relative humidity for up to four weeks. The protocol:
as §1

Data set [3] has as its system PC12 cells. The note with it: treatment with the kinase inhibitor; cited from earlier work.

As for `CC(C)C[C@](C)(N)COc1ccc(-c2ccnc(C(F)F)c2)nc1C(F)F` [Compound S, (S)-1-((2′,6-bis(difluoromethyl)-[2,4′-bipyridin]-5-yl)oxy)-2,4-dimethylpentan-2-amine hydrochloride], the water solubility in data set [1] (listed as hydrochloride salt of Compound J, hydrochloride) is 2.9 mg/mL.

Turning to `CC(C)C[C@](C)(N)COc1ccc(-c2ccnc(C(F)F)c2)nc1C(F)F` [Compound K, ((S)-1-((2′,6-bis(difluoromethyl)-[2,4′-bipyridin]-5-yl)oxy)-2,4-dimethylpentan-2-aminiumdihydrogen phosphate], the water solubility in data set [1] (listed as Form I) was 26.8 mg/mL. Further, the “stability on storage (form, morphology, purity)” value in data set [2] is “neither the form itself, its morphology, nor its purity changed”.

Regarding `COC(=O)[C@@]1(O)C[C@H]2O[C@]1(C)n1c3ccccc3c3c4c(c5c6ccccc6n2c5c31)C(=O)NC4` [Compound K252a, K252a], the “Neuregulin-1 induced neurite outgrowth” value in data set [3] is on record as “potentiation of Neuregulin-1 induced neurite outgrowth”.
